Results reported in patent US20070049593A1 (priority 2004, published 2007).
Structures can show the parent of a compound that is named as a salt.

Molecular target: T1, HCV polymerase (Hepatitis C virus genotype 1b, UniProt P26663)
T1 construct: a region encoding NS5B (J Virol 1991 March, 65(3), 1105-13, 544 amino acids after deletion of 47 amino acids on the C-terminal); 6xHis (C); made in house; host or cells: Escherichia coli
Assay: biochemical
Parameters: species or system HCV BK strain
Method in brief: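 Recombinant HCV BK-strain NS5B (C-terminal 47 aa deleted, His6-tagged, E. coli), 0.5 μg/ml, run with 5 μg/ml in vitro-transcribed RNA template (polyU/3′X), ATP/GTP/CTP 50 μM, UTP 2 μM plus [3H]UTP, pH 7.5, 25° C, 90 min. TCA-precipitated RNA counted by scintillation; IC50 from activity with vs without compound.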

T1 sequence (P26663 2420-2963): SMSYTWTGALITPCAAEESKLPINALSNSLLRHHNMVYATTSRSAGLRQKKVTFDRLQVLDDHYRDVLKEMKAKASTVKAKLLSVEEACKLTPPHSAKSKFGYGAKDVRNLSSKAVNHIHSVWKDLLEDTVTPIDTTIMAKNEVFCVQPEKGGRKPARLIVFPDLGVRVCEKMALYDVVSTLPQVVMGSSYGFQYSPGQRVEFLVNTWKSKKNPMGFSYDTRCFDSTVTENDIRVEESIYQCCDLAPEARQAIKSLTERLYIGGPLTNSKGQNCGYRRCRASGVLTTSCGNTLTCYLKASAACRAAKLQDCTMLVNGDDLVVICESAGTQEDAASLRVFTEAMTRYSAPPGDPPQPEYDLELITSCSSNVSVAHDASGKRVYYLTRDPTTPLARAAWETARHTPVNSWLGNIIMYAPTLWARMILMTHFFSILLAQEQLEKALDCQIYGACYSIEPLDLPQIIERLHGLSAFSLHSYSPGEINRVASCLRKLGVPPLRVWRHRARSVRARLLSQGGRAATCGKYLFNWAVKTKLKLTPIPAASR

Compound | IC50
CC(C)(C)OC(=O)N1CCC(OCCOc2cccc3c2OCCn2c-3c(C3CCCCC3)c3ccc(C(=O)O)cc32)CC1 [Example 2-465, 4-[2-(1-tert-butoxycarbonylpiperidin-4-yloxy)ethoxy]-12-cyclohexyl-6,7-dihydro-5-oxa-7a-azadibenzo[a,e]azulene-9-carboxylic acid] | < 100 nM
O=C(O)c1ccc2c(C3CCCCC3)c3n(c2c1)CCOc1c(OCCOC2CCNCC2)cccc1-3 [Example 2-466, 12-cyclohexyl-4-[2-(piperidin-4-yloxy)ethoxy]-6,7-dihydro-5-oxa-7a-azadibenzo[a,e]azulene-9-carboxylic acid monohydrochloride] | < 100 nM
CN1CCC(OCCOc2cccc3c2OCCn2c-3c(C3CCCCC3)c3ccc(C(=O)O)cc32)CC1 [Example 2-467, 12-cyclohexyl-4-[2-(1-methylpiperidin-4-yloxy)ethoxy]-6,7-dihydro-5-oxa-7a-azadibenzo[a,e]azulene-9-carboxylic acid monohydrochloride] | < 100 nM
O=C(O)c1ccc2c(C3CCCCC3)c3n(c2c1)CCOc1c(OCCC2CCN(C4CCCC4)CC2)cccc1-3 [Example 2-468, 12-cyclohexyl-4-[2-(1-cyclopentylpiperidin-4-yl)ethoxy]-6,7-dihydro-5-oxa-7a-azadibenzo[a,e]azulene-9-carboxylic acid monohydrochloride] | < 100 nM
CN1CCCC(Oc2cccc3c2OCCn2c-3c(C3CCCCC3)c3ccc(C(=O)O)cc32)C1 (centres unmarked) [Example 2-469, 12-cyclohexyl-4-(1-methylpiperidin-3-yloxy)-6,7-dihydro-5-oxa-7a-azadibenzo[a,e]azulene-9-carboxylic acid monohydrochloride] | < 100 nM
COCCN1CCCC(Oc2cccc3c2OCCn2c-3c(C3CCCCC3)c3ccc(C(=O)O)cc32)C1 (centres unmarked) [Example 2-470, 12-cyclohexyl-4-[1-(2-methoxyethyl)piperidin-3-yloxy]-6,7-dihydro-5-oxa-7a-azadibenzo[a,e]azulene-9-carboxylic acid monohydrochloride] | < 100 nM
O=C(O)c1ccc2c(C3CCCCC3)c3n(c2c1)CCOc1c(OCc2cc(N4CCCC4=O)ccc2N2CCOCC2)cccc1-3 [Example 2-471, 12-cyclohexyl-4-[2-(morpholin-4-yl)-5-(2-oxopyrrolidin-1-yl)benzyloxy]-6,7-dihydro-5-oxa-7a-azadibenzo[a,e]azulene-9-carboxylic acid monohydrochloride] | < 100 nM
CN1CCC(N(C)CCOc2cccc3c2OCCn2c-3c(C3CCCCC3)c3ccc(C(=O)O)cc32)CC1 [Example 2-472, 12-cyclohexyl-4-{2-[N-methyl-N-(1-methylpiperidin-4-yl)amino]ethoxy}-6,7-dihydro-5-oxa-7a-azadibenzo[a,e]azulene-9-carboxylic acid trihydrochloride] | < 100 nM
COC(=O)c1ccc2c(C3CCCCC3)c3n(c2c1)CCOc1c(OCC(=O)O)cccc1-3 [Example 2-473, methyl 4-carboxymethoxy-12-cyclohexyl-6,7-dihydro-5-oxa-7a-azadibenzo[a,e]azulene-9-carboxylate] | 100 to 1000 nM
CN(CCN1CCCCC1)c1cccc2c1OCCn1c-2c(C2CCCCC2)c2ccc(C(=O)O)cc21 [Example 2-474, 12-cyclohexyl-4-(N-methyl-N-[2-(piperidin-1-yl)ethyl]amino}-6,7-dihydro-5-oxa-7a-azadibenzo[a,e]azulene-9-carboxylic acid dihydrochloride] | < 100 nM
COc1cccc2c1OCCn1c-2c(C2CCCCC2)c2ccc(C(=O)O)cc21 [Example 2-475, 12-cyclohexyl-4-methoxy-6,7-dihydro-5-oxa-7a-azadibenzo[a,e]azulene-9-carboxylic acid] | < 100 nM
Nc1cccc2c1OCCn1c-2c(C2CCCCC2)c2ccc(C(=O)O)cc21 [Example 2-476, 4-amino-12-cyclohexyl-6,7-dihydro-5-oxa-7a-azadibenzo[a,e]azulene-9-carboxylic acid] | < 100 nM
O=C(O)c1ccc2c(C3CCCCC3)c3n(c2c1)CCOc1c-3cccc1[N+](=O)[O-] [Example 2-477, 12-cyclohexyl-4-nitro-6,7-dihydro-5-oxa-7a-azadibenzo[a,e]azulene-9-carboxylic acid] | < 100 nM
O=C(O)c1ccc2c(C3CCCCC3)c3n(c2c1)CCOc1c(NCCN2CCCCC2)cccc1-3 [Example 2-478, 12-cyclohexyl-4-[2-(piperidin-1-yl)ethylamino]-6,7-dihydro-5-oxa-7a-azadibenzo[a,e]azulene-9-carboxylic acid dihydrochloride] | < 100 nM
Cc1ccc2c(c1)OCCn1c-2c(C2CCCCC2)c2ccc(C(=O)O)cc21 [Example 2-479, 12-cyclohexyl-3-methyl-6,7-dihydro-5-oxa-7a-azadibenzo[a,e]azulene-9-carboxylic acid] | < 100 nM
CCN(CCN1CCCCC1)c1cccc2c1OCCn1c-2c(C2CCCCC2)c2ccc(C(=O)O)cc21 [Example 2-480, 12-cyclohexyl-4-{N-ethyl-N-[2-(piperidin-1-yl)ethyl]amino}-6,7-dihydro-5-oxa-7a-azadibenzo[a,e]azulene-9-carboxylic acid dihydrochloride] | < 100 nM
CCCN(CCN1CCCCC1)c1cccc2c1OCCn1c-2c(C2CCCCC2)c2ccc(C(=O)O)cc21 [Example 2-481, 12-cyclohexyl-4-{N-[2-(piperidin-1-yl)ethyl]-N-propylamino}-6,7-dihydro-5-oxa-7a-azadibenzo[a,e]azulene-9-carboxylic acid dihydrochloride] | < 100 nM
COCCN(CCN1CCCCC1)c1cccc2c1OCCn1c-2c(C2CCCCC2)c2ccc(C(=O)O)cc21 [Example 2-482, 12-cyclohexyl-4-{N-(2-methoxyethyl)-N-[2-(piperidin-1-yl)ethyl]amino}-6,7-dihydro-5-oxa-7a-azadibenzo[a,e]azulene-9-carboxylic acid dihydrochloride] | < 100 nM
CN(C)c1cccc2c1OCCn1c-2c(C2CCCCC2)c2ccc(C(=O)O)cc21 [Example 2-483, 12-cyclohexyl-4-dimethylamino-6,7-dihydro-5-oxa-7a-azadibenzo[a,e]azulene-9-carboxylic acid] | < 100 nM
O=C(O)c1ccc2c(C3CCCCC3)c3n(c2c1)CCOc1cccc(F)c1-3 [Example 2-484, 12-cyclohexyl-1-fluoro-6,7-dihydro-5-oxa-7a-azadibenzo[a,e]azulene-9-carboxylic acid] | < 100 nM
CC(=O)N(CCN1CCCCC1)c1cccc2c1OCCn1c-2c(C2CCCCC2)c2ccc(C(=O)O)cc21 [Example 2-485, 4-{N-acetyl-N-[2-(piperidin-1-yl)ethyl]amino}-12-cyclohexyl-6,7-dihydro-5-oxa-7a-azadibenzo[a,e]azulene-9-carboxylic acid] | < 100 nM
CN(CC(=O)N1CCCCC1)c1cccc2c1OCCn1c-2c(C2CCCCC2)c2ccc(C(=O)O)cc21 [Example 2-486, 12-cyclohexyl-4-{N-methyl-N-[2-oxo-2-(piperidin-1-yl)ethyl]amino}-6,7-dihydro-5-oxa-7a-azadibenzo[a,e]azulene-9-carboxylic acid] | < 100 nM
COc1ccc2c(c1)OCCn1c-2c(C2CCCCC2)c2ccc(C(=O)NC3(C(=O)Nc4ccc(S(=O)(=O)O)cc4)CCC3)cc21 [Example 2-523, 4-({1-[(12-cyclohexyl-3-methoxy-6,7-dihydro-5-oxa-7a-azadibenzo[a,e]azulene-9-carbonyl)amino]cyclobutanecarbonyl}amino)benzenesulfonic acid] | < 100 nM
